Experimental data as given in PMC11378298 (ACS Chemical Neuroscience, 2024).

Tests used:
Experiment in all cases: Kinase selectivity, radiometric [Km ATP] KinaseProfiler
Type in all cases: biochemical
MAPK2 = target: T1, MAPK2 (Homo sapiens, UniProt P28482)
T1 construct: purchased Eurofins (KinaseProfiler service)
Procedure: (§1) We selected those kinases with the greatest potential for interaction based on structural homology, as indicated by the ChemPartner panel.
(§2) Figure 7 Kinase selectivity for compound 36. Data are presented as percent of kinases’ activity in the presence of 1 μM of compound 36. Kinases’ panel (CMGC group, human enzymes): CDK1/cyclinB, CDK2/cyclinA, CDK4/cyclinD3, CDK6/cyclinD3, CDK7/cyclinH/MAT1, CDK9/cyclinT1, DYRK1A, DYRK1B, GSK-3α, GSK-3β, JNK2α2, JNK3, MAPK1, MAPK2, SAPK2a(T106M), SAPK2b, SAPK3.
(§3) Selectivity studies were performed at Eurofins in Kinase Enzymatic Radiometric [Km ATP]
(§4) Kinase Profiler Lead Hunter Assay. The percentage of enzymatic activity was measured at the
(§5) concentration of 1 µM of compound 36 in duplicate for 17 selected kinases.
(§6) Table S12. Inhibitory activity of compound 36 against selected kinases.
(§7) *Where n = 2, the value reported here is actually range / √ 2.

MAPK1 = target: T2, MAPK1 (Homo sapiens, UniProt P27361)
T2 construct: purchased Eurofins (KinaseProfiler service)
Procedure: as §1, §2, §3, §4, §5, §6, §7

DYRK1B = target: T3, DYRK1B (Homo sapiens, UniProt Q9Y463); conditions: duplicate
T3 construct: purchased Eurofins (KinaseProfiler service)
Procedure: as §1, §2, §3, §4, §5, §6, §7

SAPK3 = target: T4, SAPK3 (Homo sapiens, UniProt P53778)
T4 construct: purchased Eurofins (KinaseProfiler service)
Procedure: as §1, §2, §3, §4, §5, §6, §7

DYRK1A = target: T5, DYRK1A (Homo sapiens, UniProt Q13627); conditions: duplicate
T5 construct: purchased Eurofins (KinaseProfiler service)
Procedure: as §1, §2, §3, §4, §5, §6, §7

GSK-3α = target: T6, GSK-3α (Homo sapiens, UniProt P49840); conditions: duplicate
T6 construct: purchased Eurofins (KinaseProfiler service)
Procedure: as §1, §2, §3, §4, §5, §6, §7

SAPK2a(T106M) = target: T7, SAPK2a(T106M) (Homo sapiens, UniProt Q16539, T106M)
T7 construct: purchased Eurofins (KinaseProfiler service)
Procedure: as §1, §2, §3, §4, §5, §6, §7

CDK9/cyclin T1 = target: T8, CDK9/cyclin T1 (Homo sapiens, UniProt P50750)
T8 construct: purchased Eurofins (KinaseProfiler service)
Procedure: as §1, §2, §3, §4, §5, §6, §7

CDK2/cyclinA = target: T9, CDK2/cyclinA (Homo sapiens, UniProt P24941)
T9 construct: purchased Eurofins (KinaseProfiler service)
Procedure: as §1, §2, §3, §4, §5, §6, §7

CDK1/cyclinB = target: T10, CDK1/cyclinB (Homo sapiens, UniProt P06493)
T10 construct: purchased Eurofins (KinaseProfiler service)
Procedure: as §1, §2, §3, §4, §5, §6, §7

CDK6/cyclinD3 = target: T11, CDK6/cyclinD3 (Homo sapiens, UniProt Q00534)
T11 construct: purchased Eurofins (KinaseProfiler service)
Procedure: as §1, §2, §3, §4, §5, §6, §7

CDK4/cyclinD3 = target: T12, CDK4/cyclinD3 (Homo sapiens, UniProt P11802)
T12 construct: purchased Eurofins (KinaseProfiler service)
Procedure: as §1, §2, §3, §4, §5, §6, §7

JNK2α2 = target: T13, JNK2α2 (Homo sapiens, UniProt P45984)
T13 construct: purchased Eurofins (KinaseProfiler service)
Procedure: as §1, §2, §3, §4, §5, §6, §7

CDK7/cyclinH/MAT1 = target: T14, CDK7/cyclinH/MAT1 (Homo sapiens, UniProt P50613)
T14 construct: purchased Eurofins (KinaseProfiler service)
Procedure: as §1, §2, §3, §4, §5, §6, §7

SAPK2b = target: T15, SAPK2b (Homo sapiens, UniProt Q15759)
T15 construct: purchased Eurofins (KinaseProfiler service)
Procedure: as §1, §2, §3, §4, §5, §6, §7

JNK3 = target: T16, JNK3 (Homo sapiens, UniProt P53779)
T16 construct: purchased Eurofins (KinaseProfiler service)
Procedure: as §1, §2, §3, §4, §5, §6, §7

T13 sequence (P45984 whole entry): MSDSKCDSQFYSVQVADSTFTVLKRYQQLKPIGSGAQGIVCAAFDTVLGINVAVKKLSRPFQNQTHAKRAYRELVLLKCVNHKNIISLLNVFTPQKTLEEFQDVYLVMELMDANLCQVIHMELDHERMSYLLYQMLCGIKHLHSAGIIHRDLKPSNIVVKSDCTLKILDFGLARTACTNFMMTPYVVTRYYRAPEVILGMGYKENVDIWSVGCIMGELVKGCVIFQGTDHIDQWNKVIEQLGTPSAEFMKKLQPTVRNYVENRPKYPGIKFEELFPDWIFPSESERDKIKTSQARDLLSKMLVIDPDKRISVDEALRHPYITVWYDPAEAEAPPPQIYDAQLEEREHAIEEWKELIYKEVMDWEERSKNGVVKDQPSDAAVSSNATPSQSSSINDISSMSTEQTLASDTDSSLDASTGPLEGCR
T16 sequence (P53779 whole entry): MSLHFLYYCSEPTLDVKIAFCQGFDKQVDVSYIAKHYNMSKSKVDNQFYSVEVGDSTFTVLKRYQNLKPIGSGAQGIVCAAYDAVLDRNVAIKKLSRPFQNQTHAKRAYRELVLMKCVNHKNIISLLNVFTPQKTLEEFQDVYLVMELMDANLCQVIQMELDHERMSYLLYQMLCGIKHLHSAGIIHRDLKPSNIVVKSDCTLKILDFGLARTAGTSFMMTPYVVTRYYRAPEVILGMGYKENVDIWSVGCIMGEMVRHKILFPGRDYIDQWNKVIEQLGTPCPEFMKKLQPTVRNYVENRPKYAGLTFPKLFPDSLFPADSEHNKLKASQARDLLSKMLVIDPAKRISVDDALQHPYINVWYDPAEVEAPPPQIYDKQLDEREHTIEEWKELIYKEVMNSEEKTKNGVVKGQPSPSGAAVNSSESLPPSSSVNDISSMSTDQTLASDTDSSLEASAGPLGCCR
T12 sequence (P11802 whole entry): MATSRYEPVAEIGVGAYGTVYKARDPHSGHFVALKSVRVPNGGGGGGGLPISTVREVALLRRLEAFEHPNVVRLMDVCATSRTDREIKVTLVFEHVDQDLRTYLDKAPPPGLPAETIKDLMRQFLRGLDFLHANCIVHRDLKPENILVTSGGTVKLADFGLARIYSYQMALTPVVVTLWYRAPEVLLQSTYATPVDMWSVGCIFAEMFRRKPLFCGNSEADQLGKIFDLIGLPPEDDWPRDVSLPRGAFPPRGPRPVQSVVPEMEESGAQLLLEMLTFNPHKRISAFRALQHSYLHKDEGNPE
T12 sequence (P30281 whole entry partner): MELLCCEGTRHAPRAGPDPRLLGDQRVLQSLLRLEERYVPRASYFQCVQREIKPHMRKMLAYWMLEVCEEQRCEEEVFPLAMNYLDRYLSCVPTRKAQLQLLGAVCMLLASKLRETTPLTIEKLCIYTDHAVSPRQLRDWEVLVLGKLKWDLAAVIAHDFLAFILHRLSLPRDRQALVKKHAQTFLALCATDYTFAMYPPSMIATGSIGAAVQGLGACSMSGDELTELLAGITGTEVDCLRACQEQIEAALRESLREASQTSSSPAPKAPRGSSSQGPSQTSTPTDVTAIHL
T8 sequence (P50750 whole entry): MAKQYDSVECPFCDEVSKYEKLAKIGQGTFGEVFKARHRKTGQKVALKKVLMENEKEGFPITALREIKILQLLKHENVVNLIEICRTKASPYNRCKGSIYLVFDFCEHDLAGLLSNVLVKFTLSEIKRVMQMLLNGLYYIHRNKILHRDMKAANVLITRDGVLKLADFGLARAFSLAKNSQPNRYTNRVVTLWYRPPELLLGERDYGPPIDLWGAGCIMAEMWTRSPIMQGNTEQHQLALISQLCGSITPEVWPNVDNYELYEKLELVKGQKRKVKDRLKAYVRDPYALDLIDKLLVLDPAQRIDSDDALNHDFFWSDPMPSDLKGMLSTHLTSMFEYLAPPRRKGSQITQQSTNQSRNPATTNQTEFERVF
T8 sequence (O60563 whole entry partner): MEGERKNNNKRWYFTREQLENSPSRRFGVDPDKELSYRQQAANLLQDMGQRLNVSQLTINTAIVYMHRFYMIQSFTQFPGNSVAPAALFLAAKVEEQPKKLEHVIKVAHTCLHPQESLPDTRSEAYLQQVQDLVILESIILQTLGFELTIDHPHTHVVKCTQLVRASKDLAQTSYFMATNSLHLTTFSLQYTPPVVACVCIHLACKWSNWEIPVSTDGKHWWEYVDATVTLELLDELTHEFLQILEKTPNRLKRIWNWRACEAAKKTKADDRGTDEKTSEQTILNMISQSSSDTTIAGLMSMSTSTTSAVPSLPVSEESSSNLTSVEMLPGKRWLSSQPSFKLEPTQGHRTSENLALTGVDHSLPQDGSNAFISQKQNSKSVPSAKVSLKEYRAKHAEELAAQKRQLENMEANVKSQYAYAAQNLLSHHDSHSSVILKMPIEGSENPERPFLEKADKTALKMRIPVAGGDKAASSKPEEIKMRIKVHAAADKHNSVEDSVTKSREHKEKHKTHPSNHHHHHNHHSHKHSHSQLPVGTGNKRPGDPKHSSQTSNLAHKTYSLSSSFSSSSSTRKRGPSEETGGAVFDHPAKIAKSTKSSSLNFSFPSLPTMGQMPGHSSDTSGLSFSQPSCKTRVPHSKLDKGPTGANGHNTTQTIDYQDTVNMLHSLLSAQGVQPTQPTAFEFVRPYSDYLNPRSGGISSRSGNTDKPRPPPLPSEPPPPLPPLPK
T10 sequence (P06493 whole entry): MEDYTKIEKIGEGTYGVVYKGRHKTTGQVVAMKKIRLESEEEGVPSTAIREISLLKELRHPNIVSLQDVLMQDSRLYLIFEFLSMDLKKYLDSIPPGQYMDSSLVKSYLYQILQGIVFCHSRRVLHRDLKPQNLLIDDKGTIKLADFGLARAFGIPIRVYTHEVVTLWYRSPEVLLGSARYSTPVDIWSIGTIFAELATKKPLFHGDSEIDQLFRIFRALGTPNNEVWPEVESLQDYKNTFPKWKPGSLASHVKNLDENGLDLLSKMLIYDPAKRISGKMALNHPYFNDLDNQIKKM
T10 sequence (P14635 whole entry partner): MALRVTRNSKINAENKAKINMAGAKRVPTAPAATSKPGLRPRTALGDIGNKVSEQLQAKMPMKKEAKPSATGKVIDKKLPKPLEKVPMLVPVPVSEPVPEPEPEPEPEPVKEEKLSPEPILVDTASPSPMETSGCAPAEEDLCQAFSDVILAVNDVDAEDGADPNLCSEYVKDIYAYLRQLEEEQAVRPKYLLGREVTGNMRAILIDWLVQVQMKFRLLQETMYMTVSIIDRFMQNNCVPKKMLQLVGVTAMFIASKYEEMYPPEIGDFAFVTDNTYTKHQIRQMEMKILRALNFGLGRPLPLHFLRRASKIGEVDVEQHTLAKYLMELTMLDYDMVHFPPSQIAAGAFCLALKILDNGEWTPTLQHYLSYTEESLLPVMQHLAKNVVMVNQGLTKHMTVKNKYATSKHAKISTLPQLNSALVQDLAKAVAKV
T11 sequence (Q00534 whole entry): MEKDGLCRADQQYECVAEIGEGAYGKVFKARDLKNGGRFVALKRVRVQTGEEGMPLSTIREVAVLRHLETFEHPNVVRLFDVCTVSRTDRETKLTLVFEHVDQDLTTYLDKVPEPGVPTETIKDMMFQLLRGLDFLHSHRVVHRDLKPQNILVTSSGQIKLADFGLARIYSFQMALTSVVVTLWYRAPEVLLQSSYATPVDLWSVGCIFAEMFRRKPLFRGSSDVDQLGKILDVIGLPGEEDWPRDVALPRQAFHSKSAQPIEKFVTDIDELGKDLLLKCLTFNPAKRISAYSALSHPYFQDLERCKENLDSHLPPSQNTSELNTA
T11 sequence (P30281 whole entry partner): as the sequence (P30281 whole entry partner) above
T15 sequence (Q15759 whole entry): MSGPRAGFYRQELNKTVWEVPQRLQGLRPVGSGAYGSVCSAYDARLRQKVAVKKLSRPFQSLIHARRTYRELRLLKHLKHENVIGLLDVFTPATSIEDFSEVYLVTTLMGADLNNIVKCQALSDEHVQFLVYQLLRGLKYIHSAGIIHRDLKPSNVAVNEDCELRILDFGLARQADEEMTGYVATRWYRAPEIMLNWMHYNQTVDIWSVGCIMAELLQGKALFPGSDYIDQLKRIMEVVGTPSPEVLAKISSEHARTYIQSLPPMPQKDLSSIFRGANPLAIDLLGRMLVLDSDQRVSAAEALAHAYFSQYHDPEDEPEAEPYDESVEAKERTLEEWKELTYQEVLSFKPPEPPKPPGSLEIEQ
T1 sequence (P28482 whole entry): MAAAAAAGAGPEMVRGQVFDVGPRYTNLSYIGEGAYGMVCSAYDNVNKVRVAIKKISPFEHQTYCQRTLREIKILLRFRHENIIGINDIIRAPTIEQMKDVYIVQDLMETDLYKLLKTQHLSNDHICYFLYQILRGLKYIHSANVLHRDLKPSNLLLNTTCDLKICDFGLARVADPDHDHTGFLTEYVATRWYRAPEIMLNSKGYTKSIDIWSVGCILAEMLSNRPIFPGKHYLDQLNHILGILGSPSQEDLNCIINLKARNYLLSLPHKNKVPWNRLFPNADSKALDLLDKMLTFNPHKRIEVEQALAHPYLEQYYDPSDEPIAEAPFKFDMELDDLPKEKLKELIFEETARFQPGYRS
T4 sequence (P53778 whole entry): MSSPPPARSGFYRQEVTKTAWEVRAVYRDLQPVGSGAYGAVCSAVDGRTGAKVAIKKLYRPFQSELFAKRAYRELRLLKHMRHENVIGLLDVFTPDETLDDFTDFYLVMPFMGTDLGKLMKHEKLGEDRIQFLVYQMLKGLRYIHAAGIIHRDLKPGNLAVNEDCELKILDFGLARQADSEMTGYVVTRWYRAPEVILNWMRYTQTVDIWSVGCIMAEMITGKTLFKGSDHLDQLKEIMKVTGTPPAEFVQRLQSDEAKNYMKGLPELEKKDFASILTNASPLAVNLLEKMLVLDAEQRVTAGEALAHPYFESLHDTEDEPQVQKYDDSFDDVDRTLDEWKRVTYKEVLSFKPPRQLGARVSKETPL

Question: How did the inhibition at 1 µM (MAPK2) turn out when O=C(Nc1cc(-c2ccc(-c3ncon3)s2)ccn1)C1CC1 [Compound 36, N-(4-(5-(1,2,4-Oxadiazol-3-yl)thiophen-2-yl)pyridin-2-yl)cyclopropanecarboxamide] was run?
Answer: The inhibition at 1 µM was under 50%.

Question: And the “% of enzyme activity at 1μM of 36 ±SD, MAPK2” value (MAPK2; duplicate)?
Answer: The value was 98±6%.

Question: And the inhibition at 1 µM (MAPK1)?
Answer: The inhibition at 1 µM was under 50%.

Question: What about the “% of enzyme activity at 1μM of 36 ±SD, MAPK1” value (MAPK1; duplicate) of the same compound?
Answer: Its value is 100±1%.

Question: And the “% of enzyme activity at 1μM of 36 ±SD, DYRK1B” value (DYRK1B)?
Answer: Its value is 26±6%.

Question: What about the “% of enzyme activity at 1μM of 36 ±SD, SAPK3” value (SAPK3; 1 μM, duplicate) of the same compound?
Answer: The value was 50±3%.

Question: And the inhibition at 1 µM (SAPK3; read-out: inhibition of SAPK3)?
Answer: The inhibition at 1 µM was under 50%.

Question: What about the “% of enzyme activity at 1μM of 36 ±SD, DYRK1A” value (DYRK1A) of the same compound?
Answer: Its value is 11±1%.

Question: And the “% of enzyme activity at 1μM of 36 ±SD, GSK-3α” value (GSK-3α)?
Answer: Its value is 2±1%.

Question: What about the inhibition at 1 µM (SAPK2a(T106M)) of the same compound?
Answer: Its inhibition at 1 µM is under 50%.

Question: What about the “% of enzyme activity at 1μM of 36 ±SD, SAPK2a(T106M)” value (SAPK2a(T106M); duplicate) of the same compound?
Answer: Its value is 95±7%.

Question: And the inhibition at 1 µM (CDK9/cyclin T1)?
Answer: The inhibition at 1 µM was 84%.

Question: And the “% of enzyme activity at 1μM of 36 ±SD, CDK9/cyclin T1” value (CDK9/cyclin T1; duplicate)?
Answer: The value was 16±2%.

Question: And the inhibition at 1 µM (CDK2/cyclinA)?
Answer: Its inhibition at 1 µM is 63%.

Question: And the “% of enzyme activity at 1μM of 36 ±SD, CDK2/cyclinA” value (CDK2/cyclinA; duplicate)?
Answer: The value was 37±1%.

Question: What about the inhibition at 1 µM (CDK1/cyclinB) of the same compound?
Answer: The inhibition at 1 µM was 58%.

Question: What about the “% of enzyme activity at 1μM of 36 ±SD, CDK1/cyclinB” value (CDK1/cyclinB; duplicate) of the same compound?
Answer: The value was 42±4%.

Question: And the inhibition at 1 µM (CDK6/cyclinD3)?
Answer: The inhibition at 1 µM was under 50%.

Question: What about the “% of enzyme activity at 1μM of 36 ±SD, CDK6/cyclinD3” value (CDK6/cyclinD3; duplicate) of the same compound?
Answer: The value was 90±1%.

Question: What about the inhibition at 1 µM (CDK4/cyclinD3) of the same compound?
Answer: The inhibition at 1 µM was under 50%.

Question: And the “% of enzyme activity at 1μM of 36 ±SD, CDK4/cyclinD3” value (CDK4/cyclinD3; duplicate)?
Answer: The value was 97±9%.

Question: What about the inhibition at 1 µM (JNK2α2) of the same compound?
Answer: The inhibition at 1 µM was under 50%.

Question: What about the “% of enzyme activity at 1μM of 36 ±SD, JNK2α2” value (JNK2α2; duplicate) of the same compound?
Answer: The value was 100±7%.

Question: What about the inhibition at 1 µM (CDK7/cyclinH/MAT1) of the same compound?
Answer: Its inhibition at 1 µM is under 50%.

Question: And the “% of enzyme activity at 1μM of 36 ±SD, CDK7/cyclinH/ MAT1” value (CDK7/cyclinH/MAT1; duplicate)?
Answer: The value was 93±7%.

Question: And the inhibition at 1 µM (SAPK2b)?
Answer: Its inhibition at 1 µM is under 50%.

Question: What about the “% of enzyme activity at 1μM of 36 ±SD, SAPK2b” value (SAPK2b; duplicate) of the same compound?
Answer: Its value is 100±2%.

Question: What about the inhibition at 1 µM (JNK3) of the same compound?
Answer: Its inhibition at 1 µM is under 50%.

Question: What about the “% of enzyme activity at 1μM of 36 ±SD, JNK3” value (JNK3; duplicate) of the same compound?
Answer: Its value is 73±6%.
